# Experimental data as given in US11607422B2, “Uttroside B and derivatives thereof as therapeutics for hepatocellular carcinoma” (Rajiv Gandhi Centre for Biotechnology, an Autonomous …, priority 2016, dated 2023).
# Key:
# [1] = test system: HCT-116; details: literature ref 13; read-out: IC50, cytotoxicity against HCT-116 (colon cancer cells); cited from earlier work
# [2] = test system: normal immortalized hepatocytes (Chang Liver); assay: MTT assay in normal immortalized hepatocytes; assay type: cell-based; details: at 1250 nM, 72 h
# Protocol: FIG. 2A is a graph comparison of IC50 of Uttroside B in a panel of cancer cells of different origin. The cancer cell lines HeLa, A375, HepG2, MDA-MB-231, HL 60, A549 and HCT116 were treated with Uttroside B as indicated, incubated for 72 h and the cell viability was assessed by MTT assay. FIG. 2B is a graph showing dose dependent effect of Uttroside B in the liver cancer cell lines and in normal immortalized hepatocytes. The liver cancer cell lines HepG2, Hep3B, SKHEP-1, Huh-7 and normal hepatocytes (Chang liver), were treated with Uttroside B incubated for 72 h and the cell viability was assessed by MTT assay. FIG. 2C is a graph comparison of IC50 of Uttroside B with sorafenib. HepG2 cells were treated with Uttroside B as indicated, incubated for 72 h, and the cell viability was assessed by MTT assay. […] The clones developed were counted and plotted as a graph. Colony containing more than four cells was counted as one clone. […]
# MTT [3-(4,5-dimethylthiazole-2-yl)-2,5-diphenyltetrazolium bromide] assay is a standard colorimetric assay, suitable for analyzing proliferation, viability, and cytotoxicity. […] After overnight incubation, cells were treated with different concentrations of organic extracts (25-250 μg/ml) of S. nigrum and the isolated compound Uttroside B (250-1250 nM) for 72 h and cytotoxicity was measured. […]
# [3] = test system: caspases 8, 9 & 7 and PARP in HepG2 cells; assay: Western blot of caspase activation and PARP cleavage in HepG2 cells; assay type: cell-based, human
# Protocol: FIGS. 3A-3F show Uttroside B induces caspase-dependent apoptosis leading to PARP cleavage in HepG2 cells while being independent of cell cycle. FIGS. 3A-3E are images of Western blots showing caspase activation in HepG2 cells. Whole-cell extracts were prepared after treating HepG2 cells with indicated concentrations of Uttroside B for 48 h, the whole cell lysate was resolved on a 15% gel and subjected to western blotting using antibodies against the caspases 8, 9 & 7 detected by ECL. HepG2 cells were treated with Uttroside B for 48 h at different concentrations and the whole cell lysate was resolved on a 10% gel, immunoblotted against anti-PARP and detected by ECL. […] HepG2 cells were treated with Uttroside B for 48 h, stained with propidium iodide and the cell cycle analysis was done using fluorescence activated cell sorter. Curcumin 25 μM (24 h) is used as positive control.
# Western blot analysis. Approximately 0.5×10^6 cells were grown on 60 mm culture plates and exposed to drugs as indicated for the desired time. The cells were then scraped out, washed in ice cold 1× PBS and pelleted down at 13000 rpm for 2 min. The pelleted cells were suspended in 150 μL of ice-cold whole cell lysis buffer[(20 mMTris of pH 7.4, 250 mM NaCl, 2 mM EDTA, 0.1% Triton, 1 mM DTT (1,4-dithiothreitol), 0.5 mM PMSF, 4 mM sodium orthovanadate, aprotinin (5 mg m/L) and leupeptin (5 mg m/L)] and kept in ice for 30 min, with intermittent vortexing every 5 min. After incubation, the lysate was centrifuged at 13000 rpm for 10 min at 4° C. and the supernatant was collected. The total protein content in the lysate was estimated by Bradford's method, and was then denatured by boiling with 5× loading dye before separating the proteins by SDSpolyacrylamidegel electrophoresis (SDS-PAGE). Following electrophoresis, the polyacrylamide gel and a PVDF membrane were equilibrated with Towbins buffer (1 L, 25 mM Tris, 192 mM glycine, 20% (v/v) methanol (pH 8.3) for 15-30 min and the separated proteins were electro-transferred to PVDF membrane (Hybond-P, GE Healthcare Life science) using Bio-Rad Mini PROTEAN III wet blot apparatus at 100 V for 2 h at cold conditions. After the transfer, the membrane was rinsed with TBS-T (20 mM Tris pH 7.5, 150 mM NaCl, 0.1% Tween 20) buffer and stained with Ponceau-S to ensure uniform transfer. After washing off the Ponceau stain with TBST, the membrane was exposed to 5% fat free milk in TBST buffer for 1 h at room temperature to block the nonspecific binding of antibodies, followed by overnight incubation with the primary antibody [1:1000 dilution] in 3% BSA in TBST buffer at 4° C. […]
# [4] = HepG2, 48 h, concentration dependent
smiles,measurement,setting,value
C[C@H](CC[C@@]1(O)O[C@H]2C[C@H]3[C@@H]4CC[C@H]5C[C@@H](O[C@@H]6O[C@H](CO)[C@H](O[C@@H]7O[C@H](CO)[C@@H](O)[C@H](O[C@@H]8OC[C@@H](O)[C@H](O)[C@H]8O)[C@H]7O[C@@H]7O[C@H](CO)[C@@H](O)[C@H](O)[C@H]7O)[C@H](O)[C@H]6O)CC[C@]5(C)[C@H]4CC[C@]3(C)[C@H]2[C@@H]1C)CO[C@@H]1O[C@H](CO)[C@@H](O)[C@H](O)[C@H]1O [Uttroside B],IC50,[1],2330 nM
same,viable normal immortalized hepatocytes,[2],70%
same,cleavage of PARP,"[3]; HepG2, 48 h",strong cleavage of the mother band to its daughter bands
same,cleavage of procaspase 7,[3]; [4],procaspase 7 into its active fragment (p-20) were also enhanced
same,cleavage of procaspase 8,[3]; [4],increase in the cleavage of procaspase 8 to its active fragments
same,cleavage of procaspase 9,"[3]; HepG2, Western blot",time-dependent and concentration-dependent increase in the cleavage of procaspase 9
